Measured values from ChEMBL document CHEMBL1828550, “Lead identification of β-lactam and related imine inhibitors of the molecular chaperone heat shock protein 90” (Bioorg Med Chem, 2011).
Active and inactive are the calls of the source. No cut-off for these calls is given here.

Key:
[1] = target: T1, Heat shock protein HSP 90-alpha (Homo sapiens, UniProt P07900); assay: Displacement of FITC-labeled geldanamycin from human recombinant HSP90alpha after 24 hrs by fluorescence displacement assay
MCF7 = assay: Antiproliferative activity against human MCF7 cells assessed as cell viability after 72 hrs by MTT assay; type: functional, cell-based; details: MCF7, 72 h
[2] = target: T1, Heat shock protein HSP 90-alpha; assay: Inhibition of Hsp90alpha in human MCF7 assessed as induction of proteasomal ER2alpha protein degradation at 50 uM after 24 hrs by Western blot analysis relative to control
[3] = target: T1, Heat shock protein HSP 90-alpha; assay: Inhibition of Hsp90alpha in human MCF7 assessed as induction of proteasomal ER2alpha protein degradation at 100 uM after 24 hrs by Western blot analysis relative to control

CCc1cc(/C=N/c2ccc3c(c2)OCCO3)c(O)cc1O
IC50 [1]: 14.5 µM
IC50 (MCF7): > 100 µM
Activity [2]: Active

CCc1cc([C@@H]2CC(=O)N2c2ccc3c(c2)OCCO3)c(O)cc1O
IC50 [1]: 5.6 µM
IC50 (MCF7): 48 µM
Activity [2]: Active
Activity [3]: Active

O=C1C[C@@H](c2ccc(O)cc2O)N1c1ccc2c(c1)OCCO2
IC50 [1]: > 200 µM
IC50 (MCF7): 23 µM

CCc1cc([C@@H]2CC(=O)N2c2ccc3c(c2)OCO3)c(O)cc1O
IC50 [1]: > 200 µM
IC50 (MCF7): 31 µM

COc1ccc(OC)c([C@@H]2CC(=O)N2c2ccc3c(c2)OCCO3)c1
IC50 [1]: > 200 µM
IC50 (MCF7): 54 µM

CCc1cc(/C=N/c2ccc3c(c2)OCO3)c(O)cc1O
IC50 [1]: 22.1 µM
IC50 (MCF7): > 100 µM
Activity [2]: Active

CCc1cc([C@@H]2CC(=O)N2c2cc(OC)c(OC)c(OC)c2)c(O)cc1O
IC50 [1]: > 200 µM
IC50 (MCF7): 31 µM

CCc1cc([C@@H]2[C@@H](c3ccccc3)C(=O)N2c2ccc3c(c2)OCCO3)c(O)cc1O
IC50 [1]: > 200 µM
IC50 (MCF7): > 100 µM

COc1ccc([C@@H]2CC(=O)N2c2ccc3c(c2)OCCO3)c(OC)c1
IC50 [1]: > 200 µM
IC50 (MCF7): 53 µM

C=CCNC1=C2C[C@@H](C)C[C@H](OC)[C@H](O)[C@@H](C)/C=C(\C)[C@H](OC(N)=O)[C@@H](OC)/C=C\C=C(/C)C(=O)NC(=CC1=O)C2=O [TANESPIMYCIN]
IC50 (MCF7): 0.09 µM

CCc1cc([C@@H]2CC(=O)N2c2ccc(OC)cc2)c(O)cc1O
IC50 [1]: > 200 µM
IC50 (MCF7): 52 µM
